{
  "source": "patent US9694016B2",
  "about": "(Novartis AG, priority 2013, dated 2017)",
  "biological_target": "b-Raf (V600E) (Homo sapiens (Human), UniProt P15056, V600E)",
  "sequence (P15056 whole entry V600E)": "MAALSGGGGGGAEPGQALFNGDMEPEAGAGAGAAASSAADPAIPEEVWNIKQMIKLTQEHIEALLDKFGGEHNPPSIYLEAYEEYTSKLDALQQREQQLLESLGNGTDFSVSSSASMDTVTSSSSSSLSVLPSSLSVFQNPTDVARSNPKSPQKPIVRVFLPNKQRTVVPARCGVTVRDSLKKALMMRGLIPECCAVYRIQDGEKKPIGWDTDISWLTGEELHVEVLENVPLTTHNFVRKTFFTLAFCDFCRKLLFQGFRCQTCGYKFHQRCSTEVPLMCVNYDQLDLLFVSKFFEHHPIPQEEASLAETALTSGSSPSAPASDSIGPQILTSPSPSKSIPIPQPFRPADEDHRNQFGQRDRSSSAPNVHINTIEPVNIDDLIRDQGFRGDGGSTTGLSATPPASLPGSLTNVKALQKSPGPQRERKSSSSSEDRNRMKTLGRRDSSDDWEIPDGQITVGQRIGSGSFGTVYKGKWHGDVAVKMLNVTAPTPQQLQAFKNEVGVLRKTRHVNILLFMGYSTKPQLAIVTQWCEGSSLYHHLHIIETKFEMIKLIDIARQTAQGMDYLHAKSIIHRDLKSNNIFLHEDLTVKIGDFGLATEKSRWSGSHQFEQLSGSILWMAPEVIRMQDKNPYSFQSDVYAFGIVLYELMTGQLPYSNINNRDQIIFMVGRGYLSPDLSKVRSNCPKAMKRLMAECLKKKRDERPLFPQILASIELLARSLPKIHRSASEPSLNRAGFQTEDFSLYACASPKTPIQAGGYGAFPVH",
  "settings": "read-out: b-Raf IC-50",
  "key": {"[1]": {"settings": "Table 2, AlphaScreen, 3 hours reaction"}, "[2]": {"settings": "AlphaScreen, 60 min pre-incubation, 3 hours reaction"}, "[3]": {"settings": "AlphaScreen, 60 min pre-incubation, reaction 3 hours at room temperature"}},
  "note": "Where two headings read alike, the source gives them in different places.",
  "data": [
    {"smiles": "Cc1ncc(NC(=O)c2cccc(C(F)(F)F)c2)cc1-c1cnc(CS(C)(=O)=O)c(N2CCOCC2)c1", "note": "[Example 327, N-(2-methyl-6′-((methylsulfonyl)methyl)-5′-morpholino-[3,3′-bipyridin]-5-yl)-3-(trifluoromethyl)benzamide]", "values": [
      {"measurement": "IC50", "setting": "[1]", "value": 3.9, "unit": "nM"}
    ]},
    {"smiles": "Cc1ncc(NC(=O)c2ccnc(C(C)(F)F)c2)cc1-c1cnc(N(C)C)c(N2CCOCC2)c1", "note": "[Example 267]", "values": [
      {"measurement": "IC50", "setting": "[1]", "value": 1.1, "unit": "nM"}
    ]},
    {"smiles": "CCOc1nnc(-c2cc(NC(=O)c3cnnc(C(F)(F)F)c3)ccc2C)cc1N1CCOCC1", "note": "[Example 570, N-(3-(6-ethoxy-5-morpholinopyridazin-3-yl)-4-methylphenyl)-6-(trifluoromethyl)pyridazine-4-carboxamide]", "values": [
      {"measurement": "IC50", "setting": "[2]", "value": 0.8, "unit": "nM"}
    ]},
    {"smiles": "Cc1ccc(NC(=O)c2ccnc(C(F)F)c2)cc1-c1cc(N2CCOCC2)nc(NCCO)c1F", "note": "[Example 1016, 2-(difluoromethyl)-N-(3-(3-fluoro-2-((2-hydroxyethyl)amino)-6-morpholinopyridin-4-yl)-4-methylphenyl)isonicotinamide]", "values": [
      {"measurement": "IC50", "setting": "[3]", "value": 2.27, "unit": "nM"}
    ]},
    {"smiles": "CCOc1ncc(-c2cc(NC(=O)c3cccc(C(F)(F)F)c3)ccc2C)cc1N1CCOCC1", "note": "[Example 235]", "values": [
      {"measurement": "IC50", "setting": "[1]", "value": 1, "unit": "nM"}
    ]},
    {"smiles": "CCn1c(N2CCOCC2)cc(-c2cc(NC(=O)c3ccnc(C(C)(F)F)c3)ccc2C)cc1=O", "note": "[Example 519, 2-(1,1-difluoroethyl)-N-(3-(1-ethyl-6-morpholino-2-oxo-1,2-dihydropyridin-4-yl)-4-methylphenyl)isonicotinamide]", "values": [
      {"measurement": "IC50", "setting": "[2]", "value": 0.6, "unit": "nM"}
    ]},
    {"smiles": "Cc1ncc(NC(=O)c2ccnc(C(C)(C)C#N)c2)cc1-c1cnc(OCCO)c(N2CCOCC2)c1", "note": "[Example 300, 2-(2-cyanopropan-2-yl)-N-(6′-(2-hydroxyethoxy)-2-methyl-5′-morpholino-[3,3′-bipyridin]-5-yl)isonicotinamide]", "values": [
      {"measurement": "IC50", "setting": "[1]", "value": 14.6, "unit": "nM"}
    ]},
    {"smiles": "Cc1ncc(NC(=O)c2ccnc(C(C)(C)C#N)c2)cc1-c1cnc(Cl)c(N2CCOCC2)c1", "note": "[Example 289, N-(6′-chloro-2-methyl-5′-morpholino-[3,3-bipyridin]-5-yl)-2-(2-cyanopropan-2-yl)isonicotinamide]", "values": [
      {"measurement": "IC50", "setting": "[1]", "value": 15.6, "unit": "nM"}
    ]},
    {"smiles": "Cc1ncc(NC(=O)c2ccnc(C(C)(C)F)c2)cc1-c1cc(NCCO)nc(N2CCOCC2)c1", "note": "[Example 1056, 2-(2-fluoropropan-2-yl)-N-(2′-((2-hydroxyethyl)amino)-2-methyl-6′-morpholino-[3,4′-bipyridin]-5-yl)isonicotinamide]", "values": [
      {"measurement": "IC50", "setting": "[3]", "value": 11.2, "unit": "nM"}
    ]},
    {"smiles": "CCOc1ncc(-c2cc(NC(=O)c3cnnc(C(F)(F)F)c3)cnc2C)cc1N1C2CCC1COC2", "note": "[Example 282, N-(5′-(3-oxa-8-azabicyclo[3.2.1]octan-8-yl)-6′-ethoxy-2-methyl-[3,3′-bipyridin]-5-yl)-6-(trifluoromethyl)pyridazine-4-carboxamide]", "values": [
      {"measurement": "IC50", "value": 53, "unit": "nM"}
    ]},
    {"smiles": "Cc1ncc(NC(=O)c2ccnc(C(C)(C)O)c2)cc1-c1cc(NCCO)nc(N2CCOCC2)c1", "note": "[Example 1046, N-(2′-((2-hydroxyethyl)amino)-2-methyl-6′-morpholino-[3,4′-bipyridin]-5-yl)-2-(2-hydroxypropan-2-yl)isonicotinamide]", "values": [
      {"measurement": "IC50", "setting": "[3]", "value": 68.4, "unit": "nM"}
    ]},
    {"smiles": "COc1nnc(-c2cc(NC(=O)c3ccnc(C(C)(F)F)c3)ccc2C)cc1N1CCOCC1", "note": "[Example 548, 2-(1,1-difluoroethyl)-N-(3-(6-methoxy-5-morpholinopyridazin-3-yl)-4-methylphenyl)isonicotinamide]", "values": [
      {"measurement": "IC50", "setting": "[2]", "value": 1.1, "unit": "nM"}
    ]},
    {"smiles": "Cc1ccc(NC(=O)c2ccnc(C(C)(C)F)c2)cc1-c1cc(N2CCOC[C@H]2C)c(=O)n(C)n1", "note": "[Example 673, (R)-2-(2-fluoropropan-2-yl)-N-(4-methyl-3-(1-methyl-5-(3-methylmorpholino)-6-oxo-1,6-dihydropyridazin-3-yl)phenyl)isonicotinamide]", "values": [
      {"measurement": "IC50", "setting": "[2]", "value": 6.3, "unit": "nM"}
    ]},
    {"smiles": "Cc1ccc(NC(=O)c2cnnc(C3CC3)c2)cc1-c1cc(NCCO)nc(N2CCOCC2)c1", "note": "[Example 1048, 6-cyclopropyl-N-(3-(2-((2-hydroxyethyl)amino)-6-morpholinopyridin-4-yl)-4-methylphenyl)pyridazine-4-carboxamide]", "values": [
      {"measurement": "IC50", "setting": "[3]", "value": 1.55, "unit": "nM"}
    ]},
    {"smiles": "Cc1ncc(NC(=O)c2cnnc(C(F)(F)F)c2)cc1-c1cc(NCCO)nc(N2CCOCC2)c1F", "note": "[Example 1004, N-(3′-fluoro-6′-((2-hydroxyethyl)amino)-2-methyl-2′-morpholino-[3,4′-bipyridin]-5-yl)-6-(trifluoromethyl)pyridazine-4-carboxamide]", "values": [
      {"measurement": "IC50", "setting": "[3]", "value": 83.6, "unit": "nM"}
    ]},
    {"smiles": "COc1nnc(-c2cc(C(=O)Nc3ccnc(C(F)(F)F)c3)ccc2C)cc1N1CCOCC1", "note": "[Example 1018]", "values": [
      {"measurement": "IC50", "setting": "[3]", "value": 1.76, "unit": "nM"}
    ]},
    {"smiles": "Cc1ccc(NC(=O)c2cnnc(C(C)(C)C#N)c2)cc1-c1cc(N2CCOCC2)c(=O)n(C)c1", "note": "[Example 360, 6-(2-cyanopropan-2-yl)-N-(4-methyl-3-(1-methyl-5-morpholino-6-oxo-1,6-dihydropyridin-3-yl)phenyl)pyridazine-4-carboxamide]", "values": [
      {"measurement": "IC50", "setting": "[1]", "value": 6, "unit": "nM"}
    ]},
    {"smiles": "Cc1ccc(NC(=O)c2cccc(C(F)F)c2)cc1-c1cc(N2CCOCC2)c(=O)n(CCC#N)c1", "note": "[Example 336, N-(3-(1-(2-cyanoethyl)-5-morpholino-6-oxo-1,6-dihydropyridin-3-yl)-4-methylphenyl)-3-(difluoromethyl)benzamide]", "values": [
      {"measurement": "IC50", "setting": "[1]", "value": 5.5, "unit": "nM"}
    ]},
    {"smiles": "Cc1ccc(NC(=O)c2cncc(C(F)(F)F)c2)cc1-c1cc(N2CCOCC2)n(C)c(=O)c1", "note": "[Example 901, N-(4-methyl-3-(1-methyl-6-morpholino-2-oxo-1,2-dihydropyridin-4-yl)phenyl)-5-(trifluoromethyl)nicotinamide]", "values": [
      {"measurement": "IC50", "setting": "[3]", "value": 0.85, "unit": "nM"}
    ]},
    {"smiles": "CCn1cc(C(=O)Nc2ccc(C)c(-c3cc(N4CCOCC4)nc(N4CCOCC4)c3)c2)cc(C(F)(F)F)c1=O", "note": "[Example 1114, N-(3-(2,6-dimorpholinopyridin-4-yl)-4-methylphenyl)-1-ethyl-6-oxo-5-(trifluoromethyl)-1,6-dihydropyridine-3-carboxamide]", "values": [
      {"measurement": "IC50", "setting": "[3]", "value": 3.14, "unit": "nM"}
    ]},
    {"smiles": "Cc1ccc(NC(=O)c2cccc(C(F)(F)F)c2)cc1-c1nc2c(c(N3CCOCC3)n1)S(=O)(=O)CC2", "note": "[Example 857, N-(4-methyl-3-(4-morpholino-5,5-dioxido-6,7-dihydrothieno[3,2-d]pyrimidin-2-yl)phenyl)-3-(trifluoromethyl)benzamide]", "values": [
      {"measurement": "IC50", "setting": "[3]", "value": 0.4, "unit": "nM"}
    ]},
    {"smiles": "CCOc1nnc(-c2cc(NC(=O)c3cccc(C(F)(F)F)c3)cnc2C)cc1N1CCOC[C@@H]1C", "note": "[Example 571, (S)—N-(5-(6-ethoxy-5-(3-methylmorpholino)pyridazin-3-yl)-6-methylpyridin-3-yl)-3-(trifluoromethyl)benzamide]", "values": [
      {"measurement": "IC50", "setting": "[2]", "value": 2.5, "unit": "nM"}
    ]},
    {"smiles": "Cc1ccc(NC(=O)c2ccnc(S(C)(=O)=O)c2)cc1-c1cc(N2CCOCC2)nc(N2CC(O)C2)c1", "note": "[Example 1097, N-(3-(2-(3-hydroxyazetidin-1-yl)-6-morpholinopyridin-4-yl)-4-methylphenyl)-2-(methylsulfonyl)isonicotinamide]", "values": [
      {"measurement": "IC50", "setting": "[3]", "value": 3.32, "unit": "nM"}
    ]},
    {"smiles": "CCOc1nnc(-c2cc(NC(=O)c3ccnc(S(C)(=O)=O)c3)cnc2C)cc1N1CCOCC1", "note": "[Example 615, N-(5-(6-ethoxy-5-morpholinopyridazin-3-yl)-6-methylpyridin-3-yl)-2-(methylsulfonyl)isonicotinamide]", "values": [
      {"measurement": "IC50", "setting": "[2]", "value": 12.3, "unit": "nM"}
    ]},
    {"smiles": "Cc1ccc(NC(=O)c2ccnc(C(C)(F)F)c2)cc1-c1cc(N2CCOCC2)nc(OC2CNC2)n1", "note": "[Example 779, N-(3-(2-(azetidin-3-yloxy)-6-morpholinopyrimidin-4-yl)-4-methylphenyl)-2-(1,1-difluoroethyl)isonicotinamide]", "values": [
      {"measurement": "IC50", "setting": "[2]", "value": 2.2, "unit": "nM"}
    ]},
    {"smiles": "CCOc1nnc(-c2cc(NC(=O)c3ccnc(C(C)(C)F)c3)cnc2C)cc1N1CCOCC1", "note": "[Example 610, N-(5-(6-ethoxy-5-morpholinopyridazin-3-yl)-6-methylpyridin-3-yl)-2-(2-fluoropropan-2-yl)isonicotinamide]", "values": [
      {"measurement": "IC50", "setting": "[2]", "value": 4.5, "unit": "nM"}
    ]},
    {"smiles": "Cc1ncc(NC(=O)c2ccnc(S(C)(=O)=O)c2)cc1-c1cc(N2CCOCC2)nc(N2CC(O)C2)c1", "note": "[Example 1090, N-(2′-(3-hydroxyazetidin-1-yl)-2-methyl-6′-morpholino-[3,4′-bipyridin]-5-yl)-2-(methylsulfonyl)isonicotinamide]", "values": [
      {"measurement": "IC50", "setting": "[3]", "value": 51.1, "unit": "nM"}
    ]},
    {"smiles": "CCOc1nc(-c2cc(NC(=O)c3ccnc(C(F)(F)F)c3)ccc2C)cc(N2CCOCC2)n1", "note": "[Example 762, N-(3-(2-ethoxy-6-morpholinopyrimidin-4-yl)-4-methylphenyl)-2-(trifluoromethyl)isonicotinamide]", "values": [
      {"measurement": "IC50", "setting": "[2]", "value": 0.7, "unit": "nM"}
    ]},
    {"smiles": "Cc1ncc(NC(=O)c2ccnc(C(C)(C)F)c2)cc1-c1cnc(OC2CC3(COC3)C2)c(N2CCOCC2)c1", "note": "[Example 963, N-(6′-(2-oxaspiro[3.3]heptan-6-yloxy)-2-methyl-5′-morpholino-[3,3′-bipyridin]-5-yl)-2-(2-fluoropropan-2-yl)isonicotinamide]", "values": [
      {"measurement": "IC50", "setting": "[3]", "value": 2.88, "unit": "nM"}
    ]},
    {"smiles": "Cc1ncc(NC(=O)c2ccnc(S(C)(=O)=O)c2)cc1-c1cc(N2CCOCC2)nc(N2CCOCC2)c1", "note": "[Example 1124, N-(2-methyl-2′,6′-dimorpholino-[3,4′-bipyridin]-5-yl)-2-(methylsulfonyl)isonicotinamide]", "values": [
      {"measurement": "IC50", "setting": "[3]", "value": 12.1, "unit": "nM"}
    ]},
    {"smiles": "COc1nnc(-c2cc(NC(=O)c3ccnc(C(C)(C)F)c3)ccc2C)cc1N1CCOCC1", "note": "[Example 552, 2-(2-fluoropropan-2-yl)-N-(3-(6-methoxy-5-morpholinopyridazin-3-yl)-4-methylphenyl)isonicotinamide]", "values": [
      {"measurement": "IC50", "setting": "[2]", "value": 3, "unit": "nM"}
    ]},
    {"smiles": "Cc1ncc(NC(=O)c2ccnc(C(C)(C)F)c2)cc1-c1cncc(N2CCOCC2)c1", "note": "[Example 294, 2-(2-fluoropropan-2-yl)-N-(2-methyl-5′-morpholino-[3,3′-bipyridin]-5-yl)isonicotinamide]", "values": [
      {"measurement": "IC50", "setting": "[1]", "value": 10.8, "unit": "nM"}
    ]},
    {"smiles": "Cc1ncc(NC(=O)c2cccc(C(F)(F)F)c2)cc1-c1cc(N2CCOCC2)nc(N2CCOCC2)c1", "note": "[Example 77, N-(2-methyl-2′,6′-dimorpholino-[3,4′-bipyridin]-5-yl)-3-(trifluoromethyl)benzamide]", "values": [
      {"measurement": "IC50", "setting": "[1]", "value": 0.6, "unit": "nM"}
    ]},
    {"smiles": "Cc1ccc(NC(=O)c2ccnc(C(F)(F)F)c2)cc1-c1cnc(OCCO)c(N2CCOCC2)c1", "note": "[Example 1002, N-(3-(6-(2-hydroxyethoxy)-5-morpholinopyridin-3-yl)-4-methylphenyl)-2-(trifluoromethyl)isonicotinamide]", "values": [
      {"measurement": "IC50", "setting": "[3]", "value": 1.75, "unit": "nM"}
    ]}
  ]
}
